Measurements as given in paper PMC3169398 (Acta Crystallographica Section F: Structural Biology and …, 2011).

Legend:
[1] = target: T1, Bp PPAT (tagless, GPGS-ORF) (Burkholderia pseudomallei, UniProt Q3JW91); details: 2.0 M ammonium sulfate; 10 mM ATP added to protein; ligand carried over from E. coli host; active site; occupancy 0.5
T1 construct: gene coaD

[2] = target: T2, Bp PPAT (tagged, MAHHHHHHMGTLEAQTQGPGS-ORF) (Burkholderia pseudomallei, UniProt Q3JW91); details: pH 4.6, 0.2 M ammonium sulfate, PEG 2000 MME; 1 mM coenzyme A added; active site; moiety of hydrolysed or disordered coenzyme A; weak density, adenine possibly partially occupied; may be part of disor
T2 construct: gene coaD
T2 sequence (Q3JW91 whole entry, looked up): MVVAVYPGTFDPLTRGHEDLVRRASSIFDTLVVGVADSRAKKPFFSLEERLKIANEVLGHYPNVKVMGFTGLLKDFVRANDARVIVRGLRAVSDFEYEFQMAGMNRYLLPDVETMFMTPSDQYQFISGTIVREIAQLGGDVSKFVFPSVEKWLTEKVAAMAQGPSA

T1 sequence (Q3JW91 whole entry, looked up): as above

SMILES	X-ray crystal structure, 2.1 Å [1]	X-ray crystal structure, 1.6 Å [2]
CC(C)(COP(=O)(O)OP(=O)(O)OC[C@H]1O[C@@H](n2cnc3c(N)ncnc32)[C@H](O)[C@@H]1O)[C@@H](O)C(=O)NCCC(=O)NCCS [dephospho-coenzyme A]	clear evidence but weak electron density for dephospho-coenzyme A in the active site	–
Nc1ncnc2[nH]cnc12 [adenine]	–	We noted modest omit electron density for the adenine ring, which was also modelled
